What was measured:
VTA neurons = assay: Wash in of antagonist: change in Iholding in VTA neurons; assay type: cell-based, rat; conditions: for change in Iholding on wash in: across the concentrations tested
KOR = system: KOR; parameters: method as in PMID 21832171; conditions: cited from earlier work

Q: With CCc1ccc2nc(N3CCC(NCC4(C)COC4)CC3)c(-c3nc(C)no3)cc2c1 [BTRX-395750] as the compound, how does the “change in Iholding on wash in” value (VTA neurons) read?
A: Its value is “means very close to zero”.

Q: Which results are given for CC(C)CNCc1ccc(-c2ccccc2S(=O)(=O)N2CCCC2)cc1 [PF-04455242, 2-methyl-N-((2'-(pyrrolidin-1-ylsulfonyl)biphenyl-4-yl)methyl)propan-1-amine]?
A: extracellular signal-regulated kinase (ERK) phosphorylation (KOR; HEK293 cells expressing KOR ref 21): did not generate; c-Jun N terminal kinase (JNK) phosphorylation (KOR; HEK293 cells expressing KOR, compared to other KOR antagonists ref 21): minimal; neurons with outward current independent of KOR activation (VTA neurons; 1 μM antagonist): 3/8

Q: For Cc1cc(C)cc([C@@H]2CCCN2Cc2ccc(Oc3ccc(C(N)=O)cc3F)cc2)c1 [JNJ-67953964, (S)-3-fluoro-4-(4-((2-(3,5-dimethylphenyl)pyrrolidin-1-yl)methyl)phenoxy)benzamide], which “neurons with possible inward current on wash in” value (VTA neurons; 10 nM antagonist) is on record?
A: The value was 3 of 13.

Q: With CCc1cc(F)c2nc(N3CCC(NC4CCOCC4)CC3)c(-c3nc(C)no3)c(C)c2c1 [BTRX-335140, 1-(6-ethyl-8-fluoro-4-methyl-3-(3-methyl-1,2,4-oxadiazol-5-yl)quinolin-2-yl)-N-(tetrahydro-2H-pyran-4-yl)piperidin-4 amine] as the compound, how does the “change in Iholding on wash in” value (VTA neurons) read?
A: Its value is “means very close to zero”.
